Reference: ChEMBL document CHEMBL1152180, “Novel anthraquinone derivatives: synthesis via click chemistry approach and their induction of apoptosis in BGC gastric cancer cells via reactive oxygen species (ROS)-dependent mitochondrial pathway” (Bioorg Med Chem Lett, 2008)
Calls of active or inactive are those of the source. The calls are words filed in the database; no cut-off is given here.

Assays:
[1] = Induction of apoptosis in human BGC cells assessed as non apoptotic cell count at 25 uM after 24 hrs using Annexin-V-FITC PI stain by flow cytometry; format: functional
[2] = Induction of apoptosis in human BGC cells assessed as dead cell count at 25 uM after 24 hrs using Annexin-V-FITC PI stain by flow cytometry; format: functional
[3] = Induction of apoptosis in human BGC cells assessed as late stage apoptotic cell count at 25 uM after 24 hrs using Annexin-V-FITC PI stain by flow cytometry; format: functional
[4] = tested on: BGC; experiment: Induction of apoptosis in human BGC cells assessed as bursting of ROS in mitochondria at 5 uM by flow cytometry; format: functional, cell-based
[5] = Induction of apoptosis in human BGC cells assessed as early stage apoptotic cell count at 25 uM after 24 hrs using Annexin-V-FITC PI stain by flow cytometry; format: functional
[6] = tested on: BGC; experiment: Induction of apoptosis in human BGC cells assessed as loss of mitochondrial membrane potential at 10 uM by flow cytometry; format: functional, cell-based
[7] = tested on: BGC; experiment: Induction of apoptosis in human BGC cells assessed as bursting of ROS in mitochondria at 5 uM in presence of N-acetyl-cysteine; format: functional
[8] = tested on: BGC; experiment: Induction of apoptosis in human BGC cells assessed as bursting of ROS in mitochondria at 5 uM by DCFH-DA based fluorescence scanning confocal microscopy; format: functional, cell-based
[9] = Cytotoxicity against human BGC cells by MTT assay; format: functional, cell-based
[10] = Induction of apoptosis in human BGC cells assessed as accumulation at subG1 at 25 uM after 24 hrs by flow cytometry analysis; format: functional
[11] = tested on: BGC; experiment: Induction of apoptosis in human BGC cells assessed as morphological changes at 12.5 uM by Hoechst staining based laser confocal microscopy; format: functional, cell-based
[12] = tested on: BGC; experiment: Induction of apoptosis in human BGC cells assessed as loss of mitochondrial membrane potential at 10 uM by JC-1 staining based laser confocal microscopy; format: functional, cell-based

## C[N+]1(CCn2cc(COc3cccc4c3C(=O)c3cccc(OCc5cn(CC[N+]6(C)CCCCC6)nn5)c3C4=O)nn2)CCCCC1.[I-].[I-]
[1]
  Activity: 74.2%
[2]
  Activity: 2.1%
[3]
  Activity: 1%
[4]
  Activity: Dose-dependent effect
[5]
  Activity: 22.8%
[6]
  Activity: Dose-dependent effect
[7]
  Activity: inactive
[8]
  Activity: Active
[9]
  IC50: 4.02 µM
[10]
  Activity: 39.4%
[11]
  Activity: Active
[12]
  Activity: Active

## C[N+]1(CCCn2cc(COc3cccc4c3C(=O)c3cccc(OCc5cn(CCC[N+]6(C)CC6)nn5)c3C4=O)nn2)CC1
[6]
  Activity: Dose-dependent effect
[9]
  IC50: 9.31 µM
[12]
  Activity: Active

## C[N+]1(CCn2cc(COc3cccc4c3C(=O)c3cccc(OCc5cn(CC[N+]6(C)CCCC6)nn5)c3C4=O)nn2)CCCC1
[6]
  Activity: Dose-dependent effect
[9]
  IC50: 6.52 µM
[12]
  Activity: Active
